Results from article PMC9222498 (Bioactive Materials, 2022).

Legend:
[1] = tested on: orthotopic 4T1 breast cancer model; test: In vivo antitumor activity, orthotopic 4T1 breast cancer model; parameters: species or system BALB/c mice; details: 10 mg/kg SN38 equiv., i.v., days 0, 3, 6
Carboxylesterase = details: after intravenous administration; ref [51]; cited from earlier work
[2] = tested on: 4T1 spontaneous metastasis model; test: In vivo antimetastatic activity, 4T1 spontaneous metastasis model; parameters: species or system mice; details: Day 24

CCc1c2c(nc3ccc(OC(=O)N4CCC(N5CCCCC5)CC4)cc13)-c1cc3c(c(=O)n1C2)COC(=O)[C@]3(O)CC [CPT-11, irinotecan]
primary tumor growth [1]: similarly rapid tumor growth compared with the saline-treated group | enzymatic conversion rate to SN38 (Carboxylesterase): < 8% | metastasizing tumor cells in liver and lung (H&E) [2]: clearly detected metastasizing tumor cells in liver and lung | metastatic burden in lymph nodes (H&E) ([2]; ipsilateral inguinal lymph node): did not significantly reduce the metastatic burden
